For orientation: pIC50 means the IC50 on a negative log10 scale, so that one unit is a factor of ten. Low values mean a large IC50, high ones a small IC50.

Values joined by “and” are separate entries in the source; they are usually repeats but may differ in a detail not shown here. Identical values can stand only once. A value given as a limit tells only on which side of the number the result lay.

Test [1] is described as follows: In vitro enzyme assay to detect hydrolysis of chlorophenol red-beta-D-[…] directly proportional to the number of Toxoplasma stably expressing beta-galactosidase. Format: functional, organism-based, Toxoplasma gondii. The note with it: for IC50: Toxoplasma gondii.
The nature of test [2]: microbe, parasite or virus in culture. The note with it: Mycobacterium tuberculosis, 96 h, read-out: pIC50 (converted).
Test [3] is described as follows: microbe, parasite or virus in culture. The note with it: Mycobacterium tuberculosis, 72 h, read-out: pIC50 (converted).

Consider `NC(CC1CCCC1)c1ccc(Oc2ccccc2)cc1` (stereo unspecified), for which the IC50 in test [1] was 5.29 µM; in test [2] it was 24.2 µM; in test [3], 27.4 µM. Consider `NCCc1ccc(-n2cccn2)cc1`, for which the IC50 was over 50.1 µM in test [1], 191 µM in test [2] and 188 µM in test [3]. The like results for `c1ccc(COCCc2noc(C3CNC3)n2)cc1` were, in that order, 24.9 µM, 270 µM and 222 µM. With `O=C(c1cc(C2CC2)n[nH]1)N1CCC2(CCCO2)CC1`, the values for the IC50 in test [1], in test [2] and in test [3] were over 50.1 µM, over 501 µM and over 501 µM, respectively.

As for `CC1CCN(C(=O)CSc2nncs2)CC1`, the figures for the IC50 in test [1], in test [2] and in test [3] were over 50.1 µM, 23.8 µM and 22.7 µM, respectively. `Cc1cc(C)n(-c2nc(NCCCO)c3c4c(sc3n2)CCCC4)n1`: the pIC50 in test [1] was 5.989 and 5.533. The IC50 is 41.8 µM in test [2] and 45.4 µM in test [3]. As to `O=C(CN1CCC=C(F)C1)Nc1cccc(F)c1`, the IC50 is over 50.1 µM in test [1], 278 µM in test [2] and 300 µM in test [3]. With `CCCc1nc(NCCc2ccccc2)c2c(n1)c(C)nn2CC`, the pIC50 in test [1] is recorded as 4.958. Moreover, the IC50 in test [1] was 9.84 µM; in test [2] it was 38.5 µM; in test [3], 48.8 µM.

For `COC(=O)c1[nH]cc(-c2ccccc2)c1N`, the IC50 in test [1] is over 50.1 µM; in test [2], 172 µM; in test [3], 196 µM. For `NCCC(=O)N1CCCC(CCc2ccc(F)cc2)C1` (stereo unspecified) the same measures were over 50.1 µM, 479 µM and 204 µM. Consider `CCC(C#N)NC(=O)c1cnc(OC(C)C)c(Cl)c1` (stereo unspecified), for which the IC50 in test [1] is over 50.1 µM; in test [2], 291 µM; in test [3] it was 131 µM. Regarding `Brc1ccc(NCc2ccc(Cn3ccnc3)cc2)nc1`, the IC50 was 29.6 µM in test [1], 4.63 µM in test [2] and 3.73 µM in test [3]. With `Cc1cc(C)c(C#N)c(N2C[C@H](C3CC3)[C@@H](N)C2)n1`, the results for the IC50 in test [1], in test [2] and in test [3] were over 50.1 µM, over 501 µM and 247 µM, respectively. `CCCn1c(N2CCCC(C)C2)nc2c(C)nn(C)c2c1=O` (stereo unspecified): in test [1], the pIC50 was 4.506 and the IC50 was 22.2 µM. The IC50 in test [2] was over 50.1 µM. As for `CN(C)C(=O)Nc1cc(F)cc(F)c1`, the results for the IC50 in test [1], in test [2] and in test [3] were 2.1 µM, 30.6 µM and 30.2 µM, respectively. On to `OCc1cc2ccccc2nc1N1CCSCC1`, for which the values for the IC50 in test [1], in test [2] and in test [3] were over 50.1 µM, 282 µM and 238 µM, respectively. For `Nc1nc(N)nc(CN2CCCC2c2cccs2)n1` (stereo unspecified) the same measures were over 50.1 µM, over 501 µM and 171 µM. The like results for `COc1ncccc1-c1csc(NCCSC)n1` were, in that order, over 50.1 µM, 284 µM and 101 µM. Turning to `NCCC1CSc2ccccc2O1` (stereo unspecified), the IC50 was over 50.1 µM in test [1], 170 µM in test [2] and 129 µM in test [3]. In the case of `NCC(O)c1ccc(-c2ccccc2)cc1` (stereo unspecified), the values for the IC50 in test [1], in test [2] and in test [3] were over 25.1 µM, 97.4 µM and 104 µM, respectively.

With `CC(C)(N)CN1CCN(c2cccc(Cl)c2)CC1`, the IC50 is over 50.1 µM in test [1], 474 µM in test [2] and 98.6 µM in test [3].

Turning to `CCc1nccn1CCNC1CCN(c2nc3ccc(Cl)cc3s2)CC1`, the IC50 in test [1] is 8.99 µM; in test [2], 18.4 µM; in test [3], 34 µM. Turning to `Brc1ccc(N2CCNCC2)nc1`, the results for the IC50 in test [1], in test [2] and in test [3] were over 50.1 µM, over 501 µM and 185 µM, respectively. For `NCc1cccc(-c2ccccn2)n1` the same measures were 12.4 µM, 97.6 µM and 109 µM. The like results for `CCn1cc(CN(C)S(=O)(=O)c2ccc(C(C)C)cc2)cn1` were, in that order, over 50.1 µM, 48.5 µM and 46.8 µM.

Take `Clc1cccc(-c2cccc(N3CCC(NC4CCOCC4)CC3)c2)c1`: the IC50 in test [1] is 14.4 µM; in test [2], 34.9 µM; in test [3], 29.7 µM. On to `C1CCC(COCCc2noc(C3CNC3)n2)C1`, for which the IC50 was 19.5 µM in test [1], over 501 µM in test [2] and 96.5 µM in test [3]. Regarding `Nc1n[nH]c(SCc2ccc3c(c2)OCCO3)n1`, the IC50 in test [1] was over 50.1 µM; in test [2] it was over 501 µM; in test [3], over 501 µM. With `NC(=O)CCc1ccc(Cl)s1`, the IC50 is over 50.1 µM in test [1], 160 µM in test [2] and over 501 µM in test [3]. Take `COc1ccc(CCN)c(OC)c1`: the IC50 was over 50.1 µM in test [1], 91.2 µM in test [2] and 46.8 µM in test [3].

Regarding `C=C/C=c1\c(=C/C)oc2c(NCc3ccccc3)nc(CC)nc12`, the IC50 in test [1] is 37.5 µM; in test [2], 19.1 µM; in test [3], 22 µM. For the compound `O=C(CN1CCc2sccc2C1)Nc1ccnc2ccnn12`, in test [1], the pIC50 was determined as 5.251 and the IC50 is 2.81 µM.

Regarding `Cn1cccc1C(=O)OCCCN1CCOCC1`, the IC50 in test [1] is over 50.1 µM. The compound `Cc1c(C)n(Cc2ccccn2)c2nc3c(c(N)c12)CCCCCC3` showed an IC50 in test [1] of 6.75 µM. As to `CCc1nc2ccccc2c(=O)n1CC1(O)CCN(C(=O)COC)CC1`, the IC50 in test [1] is over 50.1 µM.

In test [1], `CC(C)C(O)CCNS(=O)(=O)c1ccccc1` (stereo unspecified) had an IC50 of over 50.1 µM.

`CCCn1c(N2CCCCC2)nc2c(C)nn(C)c2c1=O`: in test [1], the IC50 was 34.4 µM. In turn, `CCN(CC(C)C#N)C(=O)c1ccc(Br)o1` (stereo unspecified) had an IC50 in test [1] of over 50.1 µM. In test [1], `CCc1cccc(OCC(=O)N2CCCC(n3cncn3)C2)c1` (stereo unspecified) gave an IC50 of 28.2 µM. For `OC1(Cc2ccccc2F)CCNC1` (stereo unspecified), the IC50 in test [1] is over 50.1 µM.

`Cc1cc(C(=O)Nc2cccc(C[S+](C)[O-])c2)on1` (stereo unspecified): the IC50 in test [1] is over 50.1 µM.

With `CC(Cc1ccco1)NS(=O)(=O)N1CCOCC1` (stereo unspecified), the IC50 in test [1] was over 50.1 µM. `CCC(=O)N1CCN(c2nc(C)nc3c(C)nn(C)c23)CC1`: in test [1], the IC50 is over 50.1 µM.

For `COC[C@H]1CCC[C@]12CN(Cc1cccc(C)n1)CCO2`, in test [1], the pIC50 is recorded as 4.382 and the IC50 was over 50.1 µM. `Cc1nc(C2(NCc3c(C)nn(C)c3N3CCOCC3)CCC2)no1` showed an IC50 in test [1] of 25.3 µM. In test [1], `O=C(CC1CCCC1)NCCc1noc(CO)n1` gave an IC50 of over 50.1 µM. As to `CCn1nc(C)c2nc(C(C)C)nc(NCCCn3ccnc3)c21`, the IC50 in test [1] is over 50.1 µM. Compound `CC(=O)Nc1ccc(S(=O)(=O)N2CCC(N)CC2)cc1` gave an IC50 in test [1] of over 50.1 µM. In test [1], `CC(C)COCCC(=O)Nc1nccs1` gave an IC50 of over 50.1 µM. The compound `CC(c1cccs1)n1nccc1N` (stereo unspecified) showed an IC50 in test [1] of over 50.1 µM. Turning to `Cn1nnc2c1C(COCC1CC1)CN(C(=O)Cc1cccs1)C2` (stereo unspecified), in test [1], the pIC50 worked out at 4.541 and the IC50 was 30.9 µM.

`NCc1cccc(CN2CCCC2)c1` showed an IC50 in test [1] of over 50.1 µM. On the same count and under the same terms, with `CC(=O)N1CCN(c2ncnc3cc4c(cc23)OCCO4)CC1` the figure was over 50.1 µM; with `CC(=O)c1cccc(OCC(=O)Nc2cc(C)on2)c1`, over 50.1 µM. In the case of `Cc1cc(C(=O)NCc2ccco2)nn1C`, the IC50 in test [1] is over 50.1 µM.

Take `CC(C)Cn1cc(NC(=O)N2CCC(O)C2)cn1` (stereo unspecified): in test [1], the IC50 is over 50.1 µM. The compound `CNc1ncc2c(n1)CN(c1cccc(OC)c1)C2=O` had an IC50 in test [1] of over 50.1 µM. Turning to `CCN(CCNS(=O)(=O)N1CCOCC1)C(=O)OC(C)(C)C`, in test [1], the IC50 was over 50.1 µM. Turning to `COCCNc1cc(C)nn2cnnc12`, in test [1], the IC50 is over 50.1 µM. As to `CCC(=O)NC1CCCc2nc(N(C)C)ncc21` (stereo unspecified), in test [1], the IC50 was over 50.1 µM. Regarding `CCn1cc(CN(C)S(=O)(=O)c2ccccc2)cn1`, in test [1], the IC50 was over 50.1 µM. `CCNC1CCS(=O)(=O)C1` (stereo unspecified) gave an IC50 in test [1] of over 50.1 µM. Same read-out and setting: with `CC(C)=CCN1CCOC(Cn2nc(C)cc2C)C1` (stereo unspecified) the figure was over 50.1 µM. As for `NC(=O)N1CCCCCC1C1CCNCC1` (stereo unspecified), in test [1], the IC50 is over 50.1 µM. With `CCCC(N)C(=O)N(C)Cc1cccc(N(C)C)c1` (stereo unspecified), in test [1], the IC50 was over 50.1 µM.

`CCNc1ncc2c(n1)CN(c1ccc(CC)cc1)C2=O`: the IC50 in test [1] and in test [2] was over 50.1 µM in each case. In test [1], `CNc1cccnc1N(C)C` had an IC50 of over 50.1 µM. Regarding `CNc1ncc(C(=O)N2CCCC(Cc3ccccc3OC)C2)s1` (stereo unspecified), in test [1], the IC50 was 45.9 µM. In the case of `Cn1ncc(C(=O)N2CCN(C(=O)c3ccco3)CC2)c1Cl`, in test [1], the IC50 is over 50.1 µM. The compound `O=C(NCCN1CCOCC1)c1cc(-c2ccc(Cl)s2)[nH]n1` showed an IC50 in test [1] of 5.29 µM. `COC(C)CCC(=O)NCc1cn2ccccc2n1` (stereo unspecified): the IC50 in test [1] is over 50.1 µM.

Turning to `Cc1nn(C)c2c(=O)n(Cc3ccc(F)cc3)nnc12`, in test [1], the IC50 was over 50.1 µM. With `OCCNc1nc2ccccc2s1`, the IC50 in test [1] is over 50.1 µM.

As for `CCc1cc(=O)[nH]c(-c2ccc(NCCc3ccc(O)cc3)nc2)n1`, in test [1], the IC50 was 1.18 µM. On the same count and under the same terms, for `CC(C)(CO)C(N)c1ccccc1` (stereo unspecified) the value was over 50.1 µM. Regarding `Nc1ccc(CN2CCN(CCO)CC2)cn1`, the IC50 in test [1] is over 50.1 µM. In test [1], `Cc1nn(C)c2c(=O)n(Cc3ccc(Cl)cc3)nnc12` had an IC50 of over 50.1 µM. `CO[C@H]1CC[C@H]2[C@H]1OCCN2Cc1ccc(F)c(F)c1` showed an IC50 in test [1] of over 50.1 µM.

With `NC1CCCCNC1=O` (stereo unspecified), the IC50 in test [1] is over 50.1 µM. In test [1], `O=C(c1ccc(COc2ccccc2Cl)o1)N1N=CCC1(O)C(F)(F)F` (stereo unspecified) showed a pIC50 of 5.104 and an IC50 of 6.07 µM. For the compound `Cc1cccc(NC(=O)[C@@H]2CCCN2)n1`, the IC50 in test [1] was over 50.1 µM. `CC(=O)Nc1ncc(S(=O)(=O)Nc2cccc(C)c2)s1` gave an IC50 in test [1] of over 50.1 µM.

For the compound `O=C(OCCOc1cccnc1)C1CC1`, the IC50 in test [1] was over 50.1 µM.

In test [1], `CCN1CCCC1CNCC(=O)N(C)C` (stereo unspecified) gave an IC50 of over 50.1 µM. Consider `CCN1C[C@H](NC(=O)c2snnc2C(C)C)[C@@H](OC)C1`, for which the IC50 in test [1] was over 50.1 µM.

Consider `c1ccc(-c2nn3c(CN4CCOCC4)nnc3s2)nc1`, for which the IC50 in test [1] is over 50.1 µM. Compound `NC(=O)C1CCN(c2nccc(-c3c[nH]nc3C3CCCCC3)n2)CC1` gave an IC50 in test [1] of 8.32 µM. The compound `CC(=O)Nc1ncc(S(=O)(=O)Nc2ccccc2F)s1` had an IC50 in test [1] of 31.2 µM.

These data come from ChEMBL document CHEMBL3988442, “University of Dundee, Small-Polar-MMV Screening Library” (2021).
